According to publication PMC12401824, “Studies on the impact of modifications at the Gln-Trp site in RM2-based GRPR ligands” (EJNMMI Research, 2025):
Several values for one entry are separate records, joined by “and”; a condition that tells them apart may be missing. Equal entries are not always repeated. Entries after “also recorded” stand apart in the source; their conditions may differ. Where two headings read alike, the source gives them in different places. Starred links: 1 amine or outer side, 2 acyl side, 3 side chain; linkers in the order of their positions; H or OH if unused. Non-standard residues stand in square brackets, D forms with d. Residues, ends and D or L forms follow the SMILES beside them. *: point of attachment. DOTA = O=C(O)CN1CCN(CC(=O)O)CCN(CC(=O)*)CCN(CC(=O)O)CC1; Sta = CC(C)C[C@H](N)[C@@H](O)CC(=O)O; Bta = N[C@@H](Cc1csc2ccccc12)C(=O)O; X1 = O=C(CN1CCC(N[*:1])CC1)[*:2]; hSer = N[C@@H](CCO)C(=O)O

Key:
[1] = tested on: PC-3 tumor xenograft; test: Competition study: co-injection of excess Lu-RM2 in PC-3 tumor-bearing mice; assay type: in vivo; settings: ^177Lu-labeled, 100 pmol; co-injection of 40 nmol Lu-RM2; 1 h p.i.; n = 3
Method: µPET/CT imaging. Imaging studies were performed at a MILabs VECTor^4 small-animal SPECT/PET/OI/CT device (MILabs, Utrecht, the Netherlands). Data were reconstructed using the MILabs Rec software (version 10.02) and a pixel-based Similarity-Regulated Ordered Subsets Expectation Maximization (SROSEM) algorithm, followed by data analysis using the PMOD4.0 software (PMOD TECHNOLOGIES LLC, Zurich, Switzerland). […] Static images were recorded at 1 h p.i. with an acquisition time of 45–60 min (3–4 frames, 15 min each) using the HE-GP-RM collimator and a step-wise multi-planar bed movement. Depending on the size of the mouse, either four or eight bed position were required, with an imaging time of ~ 1.8 min or ~ 3.6 min per bed position. For competition studies, 3.62 mg/kg (40 nmol) of Lu-RM2 (10^−3 M in PBS) were co-administered.
Figure S6. […] Data are expressed as mean ± SD (n = 4). […] Data are expressed as mean ± SD (n = 3).

[2] = Metabolic stability in vivo in mice (intact tracer in serum); settings: ^177Lu-labeled, healthy mice
Method: Metabolic stability in vivo was determined according to a previously published protocol by injecting approximately 30–40 MBq (1 nmol, 150 µL) of the ^177Lu-labeled compounds into the tail vein of anesthetized CB17-SCID mice (n = 3).

[3] = Biodistribution in PC-3 tumor-bearing CB17-SCID mice; assay type: in vivo; settings: mouse, intravenous, 100 pmol, ^177Lu-labeled, 100 pmol, n = 4; for tissue uptake at 1 h: 1 h p.i.; for tissue uptake at 24 h: 24 h p.i.
Method: To establish tumor xenografts, PC-3 cells (5.0 × 10^6 cells per 200 µL) were suspended in a 1/1 mixture (v/v) of Dulbecco’s modified eagle's medium/Ham’s F-12 with Glutamax-I (v/v = 1/1) and Cultrex® Basement Membrane Matrix Type 3 (Trevigen Inc., Gaithersburg, MD, USA) and inoculated subcutaneously onto the right shoulder of CB17-SCID mice (Charles River Laboratories International Inc., Sulzfeld, Germany). Mice (n = 4) were used for experiments when tumor volume has reached 125–500 mm^3 (2–3 weeks after inoculation).
Biodistribution. […] (n = 4), respectively. Selected organs were removed, weighted and measured in a γ-counter.

[4] = adrenal, read-out: Uptake in Adrenal
[5] = blood, read-out: Uptake in Blood
[6] = heart, read-out: Uptake in Heart
[7] = intestine, read-out: Uptake in Intestine
[8] = kidney, read-out: Uptake in Kidney
[9] = liver, read-out: Uptake in Liver
[10] = muscle, read-out: Uptake in Muscle
[11] = pancreas, read-out: Uptake in Pancreas
[12] = spleen, read-out: Uptake in Spleen
[13] = stomach, read-out: Uptake in Stomach
[14] = tumor, read-out: Uptake in Tumor

In the case of `CC(C)C[C@H](NC(=O)C[C@H](O)[C@H](CC(C)C)NC(=O)[C@H](Cc1c[nH]cn1)NC(=O)CNC(=O)[C@@H](NC(=O)[C@H](C)NC(=O)[C@H](Cc1c[nH]c2ccccc12)NC(=O)[C@H](CCO)NC(=O)[C@@H](Cc1ccccc1)NC(=O)CN1CCC(NC(=O)CN2CCN(CC(=O)O)CCN(CC(=O)O)CCN(CC(=O)O)CC2)CC1)C(C)C)C(N)=O` [[^177Lu]Lu-[Hse^7]RM2, metal not drawn] ({DOTA}-[X1][dF][hSer]WAVGH[Sta]L-NH2), the “Specificity of tumor accumulation (competition with excess of Lu-RM2)” value [1] is reported as “specific”, the “Intact compound in murine serum in vivo, 15 min after injection” value [2] is reported as < 20% and ~ 19% and the “Intact compound in murine serum in vivo, 30 min after injection” value [2] is reported as “did not show any intact; also recorded: could not detect any intact”. The tissue uptake at 1 h [3, 4] was 1.2 ± 0.5 %ID/g, the tissue uptake at 24 h [3, 4] was 0.61 ± 0.21 %ID/g and the tissue uptake at 1 h [3, 5] was 1 ± 0.2 %ID/g. The tissue uptake at 24 h [3, 5] was 0.02 %ID/g, the tissue uptake at 1 h ([3]; bone, read-out: Uptake in Bone) was 0.2 %ID/g and the tissue uptake at 24 h ([3]; bone, read-out: Uptake in Bone) was 2.37 ± 1.13 %ID/g. The tissue uptake at 1 h [3, 6] was 0.4 ± 0.1 %ID/g, the tissue uptake at 24 h [3, 6] was 0.11 ± 0.03 %ID/g and the tissue uptake at 1 h [3, 7] was 1.6 ± 0.2 %ID/g. It also gave a tissue uptake at 24 h [3, 7] of 0.38 ± 0.11 %ID/g, a tissue uptake at 1 h [3, 8] of 4.8 ± 0.3 %ID/g and a tissue uptake at 24 h [3, 8] of 1.94 ± 0.28 %ID/g. It also gave a tissue uptake at 1 h [3, 9] of 0.9 ± 0.1 %ID/g, a tissue uptake at 24 h [3, 9] of 0.96 ± 0.15 %ID/g and a tissue uptake at 1 h ([3]; lung, read-out: Uptake in Lung) of 0.9 ± 0.2 %ID/g. For the same compound, the tissue uptake at 24 h ([3]; lung, read-out: Uptake in Lung) was 0.17 ± 0.02 %ID/g, the tissue uptake at 1 h [3, 10] was 0.2 %ID/g and the tissue uptake at 24 h [3, 10] was 0.01 %ID/g. It also gave a tissue uptake at 1 h [3, 11] of 8 ± 0.5 %ID/g, a tissue uptake at 24 h [3, 11] of 0.14 ± 0.01 %ID/g and a tissue uptake at 1 h [3, 12] of 0.6 ± 0.2 %ID/g. It also gave a tissue uptake at 24 h [3, 12] of 0.36 ± 0.03 %ID/g, a tissue uptake at 1 h [3, 13] of 2.2 ± 0.3 %ID/g and a tissue uptake at 24 h [3, 13] of 0.26 ± 0.01 %ID/g. The tissue uptake at 1 h [3, 14] was 16.6 ± 1.6 %ID/g and the tissue uptake at 24 h [3, 14] was about 2 %ID/g.
For `CC(C)C[C@H](NC(=O)C[C@H](O)[C@H](CC(C)C)NC(=O)[C@H](Cc1c[nH]cn1)NC(=O)CNC(=O)[C@@H](NC(=O)[C@H](C)NC(=O)[C@H](Cc1csc2ccccc12)NC(=O)[C@H](CCC(N)=O)NC(=O)[C@@H](Cc1ccccc1)NC(=O)CN1CCC(NC(=O)CN2CCN(CC(=O)O)CCN(CC(=O)O)CCN(CC(=O)O)CC2)CC1)C(C)C)C(N)=O` [[^177Lu]Lu-[Bta^8]RM2, metal not drawn] ({DOTA}-[X1][dF]Q[Bta]AVGH[Sta]L-NH2), the “Specificity of tumor accumulation (competition with excess of Lu-RM2)” value [1] was “specific”, the “Intact compound in murine serum in vivo, 15 min after injection” value [2] was < 20% and ~ 10% and the “Intact compound in murine serum in vivo, 30 min after injection” value [2] was “did not show any intact; also recorded: could not detect any intact”. For the same compound, the tissue uptake at 1 h [3, 4] was 1.1 ± 0.1 %ID/g, the tissue uptake at 24 h [3, 4] was 0.59 ± 0.33 %ID/g and the tissue uptake at 1 h [3, 5] was 1.6 ± 0.1 %ID/g. The tissue uptake at 24 h [3, 5] was 0.04 ± 0.04 %ID/g, the tissue uptake at 1 h ([3]; bone, read-out: Uptake in Bone) was 0.9 %ID/g and the tissue uptake at 24 h ([3]; bone, read-out: Uptake in Bone) was 2.58 ± 1.05 %ID/g. The tissue uptake at 1 h [3, 6] was 0.7 %ID/g, the tissue uptake at 24 h [3, 6] was 0.09 ± 0.01 %ID/g and the tissue uptake at 1 h [3, 7] was 1 ± 0.3 %ID/g. It also gave a tissue uptake at 24 h [3, 7] of 0.28 ± 0.07 %ID/g, a tissue uptake at 1 h [3, 8] of 4.4 ± 0.4 %ID/g and a tissue uptake at 24 h [3, 8] of 2.07 ± 0.23 %ID/g. For the same compound, the tissue uptake at 1 h [3, 9] was 1.1 ± 0.1 %ID/g, the tissue uptake at 24 h [3, 9] was 0.77 ± 0.09 %ID/g and the tissue uptake at 1 h ([3]; lung, read-out: Uptake in Lung) was 1.8 ± 0.2 %ID/g. The tissue uptake at 24 h ([3]; lung, read-out: Uptake in Lung) was 0.22 ± 0.11 %ID/g, the tissue uptake at 1 h [3, 10] was 0.2 ± 0.1 %ID/g and the tissue uptake at 24 h [3, 10] was 0.02 ± 0.02 %ID/g. It also gave a tissue uptake at 1 h [3, 11] of 3.7 ± 1.4 %ID/g, a tissue uptake at 24 h [3, 11] of 0.17 ± 0.02 %ID/g and a tissue uptake at 24 h [3, 12] of 0.32 ± 0.06 %ID/g. For the same compound, the tissue uptake at 1 h [3, 13] was 1.3 ± 0.3 %ID/g, the tissue uptake at 24 h [3, 13] was 0.27 ± 0.08 %ID/g and the tissue uptake at 1 h [3, 14] was 12.1 ± 1.8 %ID/g. It also gave a tissue uptake at 24 h [3, 14] of about 2 %ID/g.
